{"source": "patent EP4800013A1", "about": "“PARG INHIBITOR” (Shanghai Qilu Pharmaceutical Research and Development …, priority 2023, dated 2025)", "note": "pIC50: −log10 of the molar value.", "data": [{"target": "T1, PARG (Homo sapiens, UniProt Q86W56)", "T1 construct": "made in house", "T1 sequence (Q86W56 whole entry)": "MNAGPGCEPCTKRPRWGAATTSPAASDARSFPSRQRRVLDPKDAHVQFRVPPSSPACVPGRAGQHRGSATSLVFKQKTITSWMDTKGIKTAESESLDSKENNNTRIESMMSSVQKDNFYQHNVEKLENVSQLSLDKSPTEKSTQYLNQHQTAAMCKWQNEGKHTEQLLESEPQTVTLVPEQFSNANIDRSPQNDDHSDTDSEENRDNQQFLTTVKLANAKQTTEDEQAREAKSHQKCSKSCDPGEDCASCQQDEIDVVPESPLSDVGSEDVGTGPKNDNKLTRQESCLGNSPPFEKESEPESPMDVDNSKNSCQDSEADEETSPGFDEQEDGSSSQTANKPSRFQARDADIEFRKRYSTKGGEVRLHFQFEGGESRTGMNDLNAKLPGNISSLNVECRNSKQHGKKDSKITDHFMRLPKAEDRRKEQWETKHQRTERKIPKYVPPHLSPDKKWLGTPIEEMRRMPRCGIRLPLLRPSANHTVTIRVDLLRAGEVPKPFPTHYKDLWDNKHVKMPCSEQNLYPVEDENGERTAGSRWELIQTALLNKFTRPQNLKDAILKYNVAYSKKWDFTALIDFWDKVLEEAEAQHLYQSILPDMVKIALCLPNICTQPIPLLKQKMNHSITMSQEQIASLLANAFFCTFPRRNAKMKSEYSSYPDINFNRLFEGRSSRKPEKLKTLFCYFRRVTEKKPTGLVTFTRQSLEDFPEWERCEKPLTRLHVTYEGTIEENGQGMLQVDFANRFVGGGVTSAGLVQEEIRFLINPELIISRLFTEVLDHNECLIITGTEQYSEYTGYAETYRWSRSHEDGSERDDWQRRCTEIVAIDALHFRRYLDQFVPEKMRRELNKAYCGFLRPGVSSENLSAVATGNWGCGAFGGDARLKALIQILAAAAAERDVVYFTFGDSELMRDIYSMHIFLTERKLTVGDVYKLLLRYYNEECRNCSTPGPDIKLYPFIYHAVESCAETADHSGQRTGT", "assay": "Enzymatic inhibitory activity against PARG, HTRF assay", "type": "biochemical", "details": "HTRF; PARylated PARP1 protein as substrate; 60 minutes at room temperature; read-out: IC50 against PARG enzyme", "description": "In this experiment, the enzymatic inhibitory activity of the compounds of the present disclosure against PARG was determined using an HTRF (homogeneous time-resolved fluorescence) assay.\nHTRF assay reagents were purchased from PerkinElmer (Cat. Nos. 61HISTLB and 610SAXLB). The purified protein was prepared in-house.\nPARG enzyme reaction buffer: 50 mM Tris (pH 7.4), 0.1 mg/mL BSA, 3 mM EDTA, 0.4 mM EGTA, 1 mM DTT, 50 mM KCl, and 0.01% Tween 20.\n• 1) Using an ultra-micro pipette, the compounds of the present disclosure were serially diluted (starting at 10 µM with 3- to 5-fold serial dilutions) and added to a 384-well reaction plate, with each concentration tested in duplicate wells. Control group 1 was added with 10 µM control compound (100% inhibition group). Control group 2 was added with DMSO (0% inhibition group). After compound addition, the 384-well plate was centrifuged at 1000 rpm for 1 minute. • 2) 2.5 µL of PARG protein was added to each well and incubated with the compounds of the present disclosure at room temperature for 15 minutes, followed by centrifugation at 1000 rpm for 1 minute. • 3) 2.5 µL of PARylated PARP1 protein was added to each well and incubated at room temperature for 60 minutes, followed by centrifugation at 1000 rpm for 1 minute. • 4) 5 µL of His-Tb & SA-XL665 HTRF assay reagents were added to each well and incubated at room temperature for 60 minutes, followed by centrifugation at 1000 rpm for 1 minute. • 5) […] were measured using a PHERAstar FSX microplate reader from BMG. • 6) Data analysis was performed using GraphPad Prism 8. The IC50 values of the compounds of the present disclosure were calculated as follows. […] The average value of duplicate wells in control group 2 (0% inhibition group) was set as the relative inhibition rate of 0%. The HTRF signal values were converted into relative inhibition rates. The IC50 values of the compounds were calculated by fitting the data to a four-parameter logistic model. Table 15: Enzymatic inhibitory activity of the compounds of the present disclosure against PARG", "values": [{"smiles": "CC(C)Oc1nc2c(N3CCN(C(=O)C(C)C)CC3)cc(S(=O)(=O)NC3(C#N)CC3)cc2n1-c1nnc(C(F)F)s1", "note": "[Compound 057L]", "pIC50": 8.07}, {"smiles": "CN(C)C(=O)N1CCN(c2cc(S(=O)(=O)NC3(C#N)CC3)cc3c2nc(OC2CC2)n3-c2nnc(C(F)F)s2)CC1", "note": "[Compound 057M]", "pIC50": 8.55}, {"smiles": "CC(C)C(=O)N1CCN(c2cc(S(=O)(=O)NC3(C#N)CC3)cc3c2nc(OC2COC2)n3-c2nnc(C(F)F)s2)CC1", "note": "[Compound 057N]", "pIC50": 8.08}, {"smiles": "CC(C)C(=O)N1CCN(c2cc(S(=O)(=O)NC3(C#N)CC3)cc3c2nc(OC2CC2)n3-c2nnc(C(F)F)s2)CC1", "note": "[Compound 057Q]", "pIC50": 8.29}, {"smiles": "CN(C)C(=O)N1CCC(c2cc(S(=O)(=O)NC3(C#N)CC3)cc3c2ncn3-c2nnc(C(F)F)s2)CC1", "note": "[Compound 059C]", "pIC50": 8.19}, {"smiles": "CC(C)C(=O)N1CCC(c2cc(S(=O)(=O)NC3(C#N)CC3)cc3c2ncn3-c2nnc(C(F)F)s2)CC1", "note": "[Compound 059D]", "pIC50": 7.54}, {"smiles": "C[C@H]1CN(c2cc(S(=O)(=O)NC3(CF)CC3)cc3c2c2nccnc2n3-c2nnc(C(F)F)s2)C[C@H](C)N1", "note": "[Compound 065I]", "pIC50": 8.74}, {"smiles": "[2H]C([2H])([2H])C1(NS(=O)(=O)c2cc(N3C[C@H](C)N[C@@H](C)C3)c3c4nccnc4n(-c4nnc(C(F)F)s4)c3c2)CC1", "note": "[Compound 065J]", "pIC50": 8.62}, {"smiles": "C[C@H]1CN(c2cc(S(=O)(=O)NC3(C#N)CC3)cc3c2c2nccnc2n3-c2nnc(C(F)F)s2)C[C@H](C)N1", "note": "[Compound 065K]", "pIC50": 8.20}, {"smiles": "C[C@H]1CN(c2cc(S(=O)(=O)NC3(C)COC3)cc3c2c2nccnc2n3-c2nnc(C(F)F)s2)C[C@H](C)N1", "note": "[Compound 065L]", "pIC50": 8.26}, {"smiles": "C[C@H]1CN(c2cc(S(=O)(=O)NC3(C#N)CC3)cc3c2n2ncnc2n3-c2nnc(C(F)F)s2)C[C@H](C)N1", "note": "[Compound 065N]", "pIC50": 8.14}, {"smiles": "[2H]C([2H])([2H])C1(NS(=O)(=O)c2cc(N3C[C@H](C)N[C@@H](C)C3)c3c(c2)n(-c2nnc(C(F)F)s2)c2ncnn32)CC1", "note": "[Compound 065O]", "pIC50": 8.51}, {"smiles": "C[C@H]1CN(c2cc(S(=O)(=O)NC3(C)COC3)cc3c2n2ncnc2n3-c2nnc(C(F)F)s2)C[C@H](C)N1", "note": "[Compound 065P]", "pIC50": 8.24}, {"smiles": "C[C@H]1CN(c2cc(S(=O)(=O)NC3(C)CC3)cc3c2n2nc(C(C)(C)O)nc2n3-c2nnc(C(F)F)s2)C[C@H](C)N1", "note": "[Compound 065T]", "pIC50": 8.82}, {"smiles": "COCc1nc2n(-c3nnc(C(F)F)s3)c3cc(S(=O)(=O)NC4(C)CC4)cc(N4C[C@H](C)N[C@@H](C)C4)c3n2n1", "note": "[Compound 065U]", "pIC50": 9.30}, {"smiles": "C[C@H]1CN(c2cc(S(=O)(=O)NC3(C)CC3)cc3c2n2nc(Cl)nc2n3-c2nnc(C(F)F)s2)C[C@H](C)N1", "note": "[Compound 065X]", "pIC50": 9.30}]}, {"test_system": "KURAMOCHI cells", "assay": "Inhibition of proliferation of KURAMOCHI cells (CellTiter-Glo, intracellular ATP)", "type": "cell-based", "details": "168 h, incubated for 7 days, read-out: IC50 against KURAMOCHI cells", "description": "In this experiment, the inhibitory effect of the compounds of the present disclosure on the proliferation of the cancer cell line KURAMOCHI was evaluated by measuring intracellular ATP levels using a bioluminescent assay, and the half maximal inhibitory concentration (IC50) was determined.\nRPMI 1640 medium (Cat. No. 11875-093), fetal bovine serum (10099-141), and 100× Pen/Strep (15070-063) were purchased from GIBCO. CellTiter-Glo Luminescent Cell Viability Assay reagent (Cat. No. G7573) was purchased from Promega.\n• 1) Day 1: KURAMOCHI cells were counted using a cell counter and seeded into a 96-well culture plate at a density of 4000 cells per well in 100 µL medium. The plate was incubated overnight in an incubator (37°C, 5% CO2). • 2) Day 2: Using a D300e digital dispenser (TECAN), 500 nL of serially diluted test compounds of the present disclosure (starting at 10 µM, a total of 9 concentrations, 1:4 dilution) were added to the cells in the culture plate. The final concentration of DMSO was 0.5%. The cell culture plate was incubated for 7 days in a cell culture incubator (37°C, 5% CO2). Control group 1 received only medium and DMSO (100% inhibition group). Control group 2 received only DMSO (0% inhibition group). The final concentration of DMSO in both groups was 0.5%. • 3) Day 9: 100 µL of CellTiter-Glo reagent was added to each well. The plate was shaken at 500 rpm for 2 minutes, centrifuged at 1000 rpm for 1 minute, and then incubated at room temperature in the dark for 10 minutes to stabilize the luminescence signal. • 4) Luminescence signals were measured using an EnVision microplate reader (PerkinElmer). • 5) Data analysis was performed using GraphPad Prism 8. The IC50 values of the compounds of the present disclosure were calculated as follows. The CTG signal values were analyzed. The average inhibition rate of control group 1 (100% inhibition group) was set as the relative inhibition rate of 100%. The average inhibition rate of control group 2 (0% inhibition group) was set as the relative inhibition rate of 0%. The CTG signal values were converted into relative inhibition rates. The inhibition percentage (inhibition%) for each concentration of the compounds of the present disclosure was calculated according to the following formula: Inhibition% = (b−x)/(b−a)*100%; [formula] • a = CTG value (highest concentration), b = CTG value (blank well), x = CTG value (test well). • IC50 was calculated using GraphPad Prism 8. • (1) The concentration and inhibition rate corresponding to each well were recorded. Statistical calculation was performed using Log10 (compound concentration). • (2) The data were input into GraphPad Prism 8 and Analysis was selected. • (3) Nonlinear regression (curve fit) was selected. • (4) Log (inhibitor) vs. response - Variable slope was selected. • (5) The calculation formula was selected, and the calculation was performed according to the following formula: Y = Bottom + (Top - Bottom) / (1 + 10 ^ ((LogIC50 - X) * HillSlope)); X: log of dose or concentration; Y: response; Top and Bottom: maximum and minimum response. • (6) The IC50 values were calculated by fitting the data. Table 16: Inhibitory effect of the compounds of the present disclosure on the proliferation of KURAMOCHI cells", "values": [{"smiles": "CC(C)Oc1nc2c(N3CCN(C(=O)C(C)C)CC3)cc(S(=O)(=O)NC3(C#N)CC3)cc2n1-c1nnc(C(F)F)s1", "note": "[Compound 057L]", "pIC50": 8.10}, {"smiles": "CN(C)C(=O)N1CCN(c2cc(S(=O)(=O)NC3(C#N)CC3)cc3c2nc(OC2CC2)n3-c2nnc(C(F)F)s2)CC1", "note": "[Compound 057M]", "pIC50": 8.22}, {"smiles": "CC(C)C(=O)N1CCN(c2cc(S(=O)(=O)NC3(C#N)CC3)cc3c2nc(OC2COC2)n3-c2nnc(C(F)F)s2)CC1", "note": "[Compound 057N]", "pIC50": 8.05}, {"smiles": "CC(C)C(=O)N1CCN(c2cc(S(=O)(=O)NC3(C#N)CC3)cc3c2nc(OC2CC2)n3-c2nnc(C(F)F)s2)CC1", "note": "[Compound 057Q]", "pIC50": 8.15}, {"smiles": "CN(C)C(=O)N1CCC(c2cc(S(=O)(=O)NC3(C#N)CC3)cc3c2ncn3-c2nnc(C(F)F)s2)CC1", "note": "[Compound 059C]", "pIC50": 7.70}, {"smiles": "CC(C)C(=O)N1CCC(c2cc(S(=O)(=O)NC3(C#N)CC3)cc3c2ncn3-c2nnc(C(F)F)s2)CC1", "note": "[Compound 059D]", "pIC50": 7.40}, {"smiles": "C[C@H]1CN(c2cc(S(=O)(=O)NC3(CF)CC3)cc3c2c2nccnc2n3-c2nnc(C(F)F)s2)C[C@H](C)N1", "note": "[Compound 065I]", "pIC50": 8.30}, {"smiles": "[2H]C([2H])([2H])C1(NS(=O)(=O)c2cc(N3C[C@H](C)N[C@@H](C)C3)c3c4nccnc4n(-c4nnc(C(F)F)s4)c3c2)CC1", "note": "[Compound 065J]", "pIC50": 8.15}, {"smiles": "C[C@H]1CN(c2cc(S(=O)(=O)NC3(C#N)CC3)cc3c2c2nccnc2n3-c2nnc(C(F)F)s2)C[C@H](C)N1", "note": "[Compound 065K]", "pIC50": 7.66}, {"smiles": "C[C@H]1CN(c2cc(S(=O)(=O)NC3(C)COC3)cc3c2c2nccnc2n3-c2nnc(C(F)F)s2)C[C@H](C)N1", "note": "[Compound 065L]", "pIC50": 7.74}, {"smiles": "C[C@H]1CN(c2cc(S(=O)(=O)NC3(C#N)CC3)cc3c2n2ncnc2n3-c2nnc(C(F)F)s2)C[C@H](C)N1", "note": "[Compound 065N]", "pIC50": 8.05}, {"smiles": "[2H]C([2H])([2H])C1(NS(=O)(=O)c2cc(N3C[C@H](C)N[C@@H](C)C3)c3c(c2)n(-c2nnc(C(F)F)s2)c2ncnn32)CC1", "note": "[Compound 065O]", "pIC50": 8.52}, {"smiles": "C[C@H]1CN(c2cc(S(=O)(=O)NC3(C)COC3)cc3c2n2ncnc2n3-c2nnc(C(F)F)s2)C[C@H](C)N1", "note": "[Compound 065P]", "pIC50": 8.15}, {"smiles": "C[C@H]1CN(c2cc(S(=O)(=O)NC3(C)CC3)cc3c2n2nc(C(C)(C)O)nc2n3-c2nnc(C(F)F)s2)C[C@H](C)N1", "note": "[Compound 065T]", "pIC50": 7.89}, {"smiles": "COCc1nc2n(-c3nnc(C(F)F)s3)c3cc(S(=O)(=O)NC4(C)CC4)cc(N4C[C@H](C)N[C@@H](C)C4)c3n2n1", "note": "[Compound 065U]", "pIC50": 8.70}, {"smiles": "C[C@H]1CN(c2cc(S(=O)(=O)NC3(C)CC3)cc3c2n2nc(Cl)nc2n3-c2nnc(C(F)F)s2)C[C@H](C)N1", "note": "[Compound 065X]", "pIC50": 8.40}]}]}
